Where “and” joins values, the source holds several entries; their conditions need not be identical. Equal entries are not always repeated. Entries after “also recorded” stand apart in the source; their conditions may differ.
Tests used:
[1] = molecular target: T1, RhlR (Pseudomonas aeruginosa, UniProt P54292); test: P. aeruginosa reporter assay, RhlR agonism (native ligand); type: cell-based
T1 construct: expressed in transfected cells; host or cells: E. coli JLD271
Description: (§1) P. aeruginosa reporter assays: Primary assays for RhlR activity in P. aeruginosa were performed as previously reported for LasR, [33] with the following modifications: OdDHL was added to the subculture to a final concentration of 100 nm immediately before it was dispensed into plates to induce expression of RhlR. For RhlR antagonism assays, synthetic ligand (100 mm) was screened against BHL at its EC50 (30 mm). For RhlR agonism assays, synthetic ligand (100 mm) was screened alongside and compared to BHL (at 900 mm) for the system. Dose-response reporter gene assays were performed according to these protocols by using various concentrations of compound.

[2] = test system: P. aeruginosa (PAO1); test: P. aeruginosa growth curves; type: cell-based, Pseudomonas aeruginosa
Description: FIGS. 2A-2D are wild-type P. aeruginosa growth curves in the presence of test compounds in various media. Related to FIGS. 3, 6A and 6B, 7A and 7B, and 12. (FIG. 2A) Growth curves in complete MOPS/Glutamate. (FIG. 2B) Growth curves in complete MOPS/Glucose. […] (FIG. 2D) Growth curves in SCFM2. P. aeruginosa (PAO1) was grown in a manner identical to the pyocyanin assay (see Experimental Procedures). At each time point, growth was measured by either reading OD600 (for MOPS media) or by serially diluting culture aliquots, plating on LB agar, and counting CFUs after overnight incubation at 37° C. (for SCFM2). Compound concentrations are 100 microM for compounds 1, 2, and 3 and 25 microM for compound 4 in all experiments unless noted otherwise. Error bars represent the standard error of at least two biological replicates (n≥2). BHL=N-butyryl L-homoserine lactone (Cayman Chemicals).
B. Bacterial Strains and Growth Conditions. Protocols for construction of genetic knockout strains are described below in Example 2. All reagents for bacterial culture were purchased from Sigma-Aldrich unless indicated otherwise. Bacteria were routinely cultured in Luria-Bertani broth (LB) at 37° C. with shaking at 200 rpm. Freezer stocks of bacterial strains were maintained at −80° C. in 1:1 LB:glycerol. Bacterial growth was routinely assessed by measuring the culture cell density according to absorbance at 600 nm (OD600341). Cell growth in simulated cystic fibrosis sputum medium (SCFM2) was determined by serially diluting assay cultures, plating on LB agar, and counting the number of colony forming units (CFU) appearing after overnight incubation at 37° C.

[3] = molecular target: T1, RhlR; test: E. coli reporter gene antagonism assay, RhlR; type: cell-based
Description: (§2) Percent agonism of a given non-native inducer in a given bacterium and QS system receptor is measured with resepct to the maximum level of agonism (activation) by the native ligand of that receptor in the given bacterium. Percent antagonism is measured in competitive assays. The QS system of interest is activated to 100% with added or endogenous native ligand and the % antagonism of the non-native inducer is assessed with respect to 100% activation by the native inducer. The native ligand which induces LasR is OdDHL, which induces RhlR is BHL and which induces PqsR is PQS. As described herein and in cited references, assays for assessment of % agonism or % atangonism may be performed in E. coli systems (heterologous) or in the bacterium of interest, e.g., Pseudomonas. Dependent upon the assay system employed native ligand may be endogenously present or it may be exogenously supplied to the assay system. […] In antagonism assays using the native strains with functional QS systems, e.g., those of P. aeruginosa, endogenous native ligand is made in the system, so no native ligand is added. In native strains having one or more non-functional QS systems (mutant strains), e.g., P. aeruginosa mutants with non-functional QS systems, native ligand is added at about 10-100× the EC50 of the native ligand. In the agonism assay, native ligand is added as a control. Details of the assays are provided herein in Example 9 and in references cited in Example 9.

[4] = molecular target: T1, RhlR; test: P. aeruginosa reporter assay, RhlR antagonism; type: cell-based
Description: as §1

[5] = test system: P. aeruginosa (PAO1); test: Pyocyanin assay; type: cell-based, Pseudomonas aeruginosa; conditions: for pyocyanin production, single compound screens: MOPS Glutamate and Glucose media, complete or iron/phosphate depleted, 17 h, 100 μM (compounds 1, 2, 3), 25 μM (compound 4), relative to DMSO
Description: A. Pyocyanin Assay Protocol. The amount of pyocyanin in P. aeruginosa culture supernatants was measured following a reported protocol (O'Loughlin et al., 2013) with modifications. A 10 mL overnight culture of P. aeruginosa PAO1 was grown for 16 h. DMSO stock solutions of test compounds (20 mM) were prepared, and 10 μL or 5 μL aliquots were added to sterile 15 mL borosilicate glass test tubes. An inoculating culture was prepared by diluting the overnight culture 1:100 into freshly prepared assay medium (see above), and 2 mL aliquots of this subculture were added to each test tube (0.5% DMSO, final). The cultures were grown for 17 h, and the final cell density measured by reading OD600. Relative pyocyanin levels were measured by first pelleting 1.5 mL of well-mixed culture at 4,000 g for 10 min, transferring 200 μL of the resulting supernatant to a clear, plastic 96-well microtiter plate, and reading absorbance at 695 nm. Media background absorbance (measured from a “no bacteria” control) was subtracted, the resulting values growth normalized by dividing by the final OD600378, and the data plotted relative to a DMSO-treated positive control. B. Rhamnolipid Assay Protocol. Rhamnolipid was quantified following a reported protocol (Koch et al., 1991) with modifications. Assay cultures were prepared and grown in an identical manner to the pyocyanin assay above. Aliquots of the final culture supernatant (1 mL) were transferred to 1 dram glass vials and extracted twice with 1 mL diethyl ether. The pooled organic fractions were evaporated to dryness, and the resulting residue reconstituted in 200 μL de-ionized water. In a 1.7 mL plastic centrifuge tube, 50 μL of this extract was diluted into 450 μL of a solution of 0.19% (w/v) orcinol in 50% (v/v) concentrated H2SO4 (or 20 μL extract into 480 μL orcinol solution for cultures grown in MOPS Glucose medium). The tubes were vortexed thoroughly to mix and incubated in an 80° C. heating block for 30 min. After briefly cooling to room temperature, 200 μL of the resulting yellow to yellow-orange solution was transferred to a clear 96-well microtiter plate, and the absorbance at 421 nm measured. Media background absorbance (measured from a “no bacteria” control) was subtracted, the resulting values growth normalized by dividing by the final OD600, and the data plotted relative to a DMSO-treated positive control. C. Elastase B Assay Protocol. The amount of elastase B in P. aeruginosa culture supernatants was measured following a reported protocol (Geske et al., 2007) with modifications. Assay cultures were prepared and grown in an identical manner to the pyocyanin assay above. Aliquots of the final culture supernatant (50 μL) were added to the wells of a clear, plastic 96-well plate. To each well, 150 μL of 0.5% (w/v) elastin-congo red conjugate (Elastin Products Co.) in Tris buffer (10 mM Tris-HCl, 1 mM CaCl2, pH 7.2) was added. The plate was sealed with a polypropylene storage mat (Costar 3080) and incubated in a 37° C. shaking incubator (200 rpm) attached to a Labquake rotator for 12 h (for experiments in SCFM2) or 24 h (for experiments in MOPS medium). To quantify elastase B activity, the undigested elastin was pelleted by centrifugation of the assay plate at 1,500 g for 10 min, after which 100 μL of the supernatant was transferred to a new, clear 96-well plate, and the absorbance at 490 nm measured. Media background absorbance (measured from a “no bacteria” control) was subtracted, the resulting values growth normalized by dividing by the final OD600, and the data plotted relative to a DMSO-treated positive control.

[6] = test system: P. aeruginosa (PAO1); test: Rhamnolipid assay; type: cell-based, Pseudomonas aeruginosa; conditions: MOPS Glutamate and Glucose media, complete or iron/phosphate depleted, 17 h, 100 μM (compounds 1, 2, 3), 25 μM (compound 4), relative to DMSO
Description: (§3) A. Pyocyanin Assay Protocol. The amount of pyocyanin in P. aeruginosa culture supernatants was measured following a reported protocol (O'Loughlin et al., 2013) with modifications. A 10 mL overnight culture of P. aeruginosa PAO1 was grown for 16 h. DMSO stock solutions of test compounds (20 mM) were prepared, and 10 μL or 5 μL aliquots were added to sterile 15 mL borosilicate glass test tubes. An inoculating culture was prepared by diluting the overnight culture 1:100 into freshly prepared assay medium (see above), and 2 mL aliquots of this subculture were added to each test tube (0.5% DMSO, final). The cultures were grown for 17 h, and the final cell density measured by reading OD600. Relative pyocyanin levels were measured by first pelleting 1.5 mL of well-mixed culture at 4,000 g for 10 min, transferring 200 μL of the resulting supernatant to a clear, plastic 96-well microtiter plate, and reading absorbance at 695 nm. Media background absorbance (measured from a “no bacteria” control) was subtracted, the resulting values growth normalized by dividing by the final OD600378, and the data plotted relative to a DMSO-treated positive control. B. Rhamnolipid Assay Protocol. Rhamnolipid was quantified following a reported protocol (Koch et al., 1991) with modifications. Assay cultures were prepared and grown in an identical manner to the pyocyanin assay above. Aliquots of the final culture supernatant (1 mL) were transferred to 1 dram glass vials and extracted twice with 1 mL diethyl ether. The pooled organic fractions were evaporated to dryness, and the resulting residue reconstituted in 200 μL de-ionized water. […] After briefly cooling to room temperature, 200 μL of the resulting yellow to yellow-orange solution was transferred to a clear 96-well microtiter plate, and the absorbance at 421 nm measured. Media background absorbance (measured from a “no bacteria” control) was subtracted, the resulting values growth normalized by dividing by the final OD600, and the data plotted relative to a DMSO-treated positive control. […] The amount of elastase B in P. aeruginosa culture supernatants was measured following a reported protocol (Geske et al., 2007) with modifications. […] To quantify elastase B activity, the undigested elastin was pelleted by centrifugation of the assay plate at 1,500 g for 10 min, after which 100 μL of the supernatant was transferred to a new, clear 96-well plate, and the absorbance at 490 nm measured. Media background absorbance (measured from a “no bacteria” control) was subtracted, the resulting values growth normalized by dividing by the final OD600, and the data plotted relative to a DMSO-treated positive control.

[7] = test system: P. aeruginosa (PAO1); test: Elastase B assay; type: cell-based, Pseudomonas aeruginosa; conditions: 17 h; for elastase B production, single compound screens: MOPS Glutamate and Glucose media, complete or iron/phosphate depleted, 100 μM (compounds 1, 2, 3), relative to DMSO
Description: as §3

[8] = molecular target: T2, LasR (Pseudomonas aeruginosa, UniProt P25084); test: E. coli reporter gene primary antagonism assay, LasR; type: cell-based; conditions: compounds at 100 mm against 2 nm OdDHL; E. coli beta-galactosidase reporter strain JLD271/pJN105L/pSC11; untreated culture = 100%; negative values indicate receptor agonism; error ±10%
T2 construct: expressed in transfected cells; host or cells: E. coli JLD271
T2 sequence (P25084 whole entry): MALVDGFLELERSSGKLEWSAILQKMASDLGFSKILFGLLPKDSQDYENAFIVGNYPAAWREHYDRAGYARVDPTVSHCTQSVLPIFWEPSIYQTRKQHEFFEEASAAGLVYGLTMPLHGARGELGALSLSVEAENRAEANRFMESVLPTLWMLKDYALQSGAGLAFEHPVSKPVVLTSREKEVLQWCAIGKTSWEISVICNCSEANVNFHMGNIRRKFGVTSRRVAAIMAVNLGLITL
Description: as §2

[9] = molecular target: QscR (Pseudomonas aeruginosa, UniProt G3XD77); type: cell-based; set-up: expressed in transfected cells; host or cells: E. coli JLD271; conditions: compounds at 100 mm against 15 nm OdDHL; E. coli reporter strain JLD271/pJN105Q/pSC11-Q; untreated culture = 100%; error ±10%
Chain of QscR (G3XD77 entry or part of it): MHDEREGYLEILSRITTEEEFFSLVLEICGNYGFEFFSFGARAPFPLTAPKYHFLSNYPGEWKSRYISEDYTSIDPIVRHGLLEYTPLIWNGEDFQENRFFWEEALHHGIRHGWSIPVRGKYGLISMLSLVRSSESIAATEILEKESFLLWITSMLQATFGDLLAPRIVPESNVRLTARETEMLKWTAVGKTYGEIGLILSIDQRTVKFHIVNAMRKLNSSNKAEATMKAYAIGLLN
Text: Construction of pSC11-Q: A 348 bp fragment spanning the upstream region of PA1897 (¢304 to +43 relative to the PA1897 translationalstart codon) was amplified from plasmid pJL101*by using primers 5′-GAATAT GGATCC TCTCTC CGCAGA TACCTG-3′ (BamHI site underlined) SEQ ID NO:5 and 5′-GCTATT GAATTC TGAAGA TGAATA GCGCCAC-3′ (EcoRI site underlined) SEQ ID NO:6. The PCR-generated fragment was digested with EcoRI and BamHI and subsequently ligated into EcoRI/BamHI-digested pPROBE-KT to generate pPROBE-KQ2. […] CGCC-3′ (BamHI site underlined) SEQ ID NO:8. The PCR-generated fragment was digested with SalI and BamHI and subsequently ligated into SalI/BamHI-digested pSC11 to generate pSC11-Q.
E. coli reporter gene assays: Primary assays for RhlR, LasR, and QscR activity in E. coli JLD271 reporter (beta-galactosidase) strains were performed as reported by Welsh et al. 2015, with the following modifications:
For all primary and dose-response antagonism assays, the concentration of native ligand utilized was approximately equal to its EC50 value in each bacterial reporter strain. For RhlR, LasR, and QscR primary antagonism assays, synthetic ligand (100 mm) was screened against BHL (10 mm), OdDHL (2 nm), and OdDHL (15 nm), respectively. For RhlR, LasR, and QscR primary agonism assays, synthetic compound (100 mm) was screened alongside and compared to the natural ligand (900 mm BHL or 100 mm OdDHL) for the receptor. As part of the beta-galactosidase assay protocol, plates to which CPRG substrate had been added were incubated at either 25° C. (LasR assay) or 30° C. (RhlR and QscR assays) until positive control wells developed a deep red color (10 min for LasR, 30 min for RhlR, and 60 min for QscR). Dose-response reporter gene assays were performed according to these protocols by using varying concentrations of compound.

T1 sequence (P54292 whole entry): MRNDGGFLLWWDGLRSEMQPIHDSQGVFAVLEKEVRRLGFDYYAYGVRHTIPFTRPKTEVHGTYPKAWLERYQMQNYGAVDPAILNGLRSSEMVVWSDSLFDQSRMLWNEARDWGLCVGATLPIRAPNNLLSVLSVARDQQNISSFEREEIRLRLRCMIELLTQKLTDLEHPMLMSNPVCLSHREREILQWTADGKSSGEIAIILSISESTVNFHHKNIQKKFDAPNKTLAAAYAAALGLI

CCCC(=O)N[C@H]1CCOC1=O [BHL, N-butyryl L-homoserine lactone, reference compound]
EC50 [1]: ~8 µM
growth in MOPS Glutamate ([2]; complete MOPS Glutamate, 100 μM): also produced the growth delay

O=C(COc1ccc(I)cc1)N[C@H]1CCSC1=O [RN22]
IC50 [3]: 19.6 µM
IC50 ([4]; IC50, antagonism, P. aeruginosa reporter, 95% CI: 19.6 μM-50.4 μM): 31.4 µM and 31 µM
concentration blocking native ligand activity by 50%, relative to native ligand EC50 ([4]; IC50 in P. aeruginosa compared with EC50 of native RhlR ligand): less than 4 fold

CCCCCCCCCC(=O)CC(=O)Nc1ccccc1 [compound 1]
pyocyanin production, single compound screens [5]: strong pyocyanin inhibition, unless phosphate concentrations were low
pyocyanin production over time, low phosphate medium ([5]; MOPS Glutamate with phosphate diluted 10-fold, 100 microM compound 1): does not attenuate pyocyanin production; also recorded: little to no effect
pyocyanin production over time, complete medium ([5]; complete MOPS Glutamate, 100 microM compound 1): eliminated pyocyanin synthesis
rhamnolipid production, single compound screens [6]: little to no effect
elastase B production, single compound screens [7]: little to no effect
effect on cell growth, compound 1 ([2]; MOPS Glutamate, 100 microM compound 1): no effect on cell growth

O=C(COc1ccc(I)cc1)N[C@H]1CCOC1=O [compound 2]
Inhibition [%] LasR [8]: −9%
pyocyanin production, single compound screens [5]: strong pyocyanin inhibition, unless phosphate concentrations were low
pyocyanin production in SCFM2, single compound ([5]; SCFM2, 17 h, 100 μM compound 2 alone): did not attenuate pyocyanin
rhamnolipid production, single compound screens [6]: little to no effect
elastase B production, single compound screens [7]: little to no effect
Inhibition [%] QsCR [9]: 18%

O=C(CSc1nc2cc([N+](=O)[O-])ccc2[nH]1)Nc1ccc(Oc2ccccc2)cc1 [compound 4, 2-[(6-nitro-1H-benzimidazol-2-yl)-sulfanyl]-N-(4-phenoxyphenyl)acetamide]
pyocyanin production, single compound screens [5]: eliminated pyocyanin synthesis under all conditions tested, even low iron and phosphate
rhamnolipid production, single compound screens [6]: failed to inhibit rhamnolipid production; also recorded: cannot inhibit rhamnolipid
elastase B production in MOPS Glutamate, single compound screen ([7]; MOPS Glutamate, 25 μM compound 4): strong attenuation of elastase B production

Source: patent US10322112B2, “Compound combinations for attenuation of bacterial virulence” (priority 2016, dated 2019)
